The source of these data is BindingDB's records for PubMed 7853174 (Merck Research Laboratories, 1995).

In this test the target is T1, Type-2 angiotensin II receptor (Rattus norvegicus, UniProt P35351).
T1 sequence (P35351 whole entry): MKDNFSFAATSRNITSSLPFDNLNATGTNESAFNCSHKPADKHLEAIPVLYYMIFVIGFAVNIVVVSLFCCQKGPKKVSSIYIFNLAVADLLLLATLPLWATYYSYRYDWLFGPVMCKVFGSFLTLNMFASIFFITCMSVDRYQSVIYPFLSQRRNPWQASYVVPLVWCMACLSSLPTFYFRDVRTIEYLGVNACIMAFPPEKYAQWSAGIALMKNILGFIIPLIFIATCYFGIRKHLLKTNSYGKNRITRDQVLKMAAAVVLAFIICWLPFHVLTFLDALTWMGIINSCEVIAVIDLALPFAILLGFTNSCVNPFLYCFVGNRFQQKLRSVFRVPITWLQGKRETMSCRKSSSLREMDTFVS

In the case of `CCCc1nc(C(F)(F)C(F)(F)F)c(C(=O)O)n1Cc1ccc(-c2ccccc2-c2nnn[nH]2)cc1` [CAS_124750-95-4], the Ki (usually the dissociation constant of the complex between target and ligand, obtained from inhibition or displacement) came to 5.77 µM.
